Source: patent US11154477B2, “Use of alkanolamine alkylamides as humectants” (Akzo Nobel Chemicals International B.V., priority 2016, dated 2021)

Assays:
[1] = Dynamic Vapor Sorption (DVS) measurement of water absorption by humectants; assay type: physicochemical; conditions: for Percentage of water absorbed based on weight of the tested compound: 25° C., equilibrium
Protocol: Dynamic Vapor Sorption (DVS) technique was used to measure the moisture intake of a specific compound at certain humidity level. A DVS Intrinsic instrument manufactured by Surface Measurement Systems UK Ltd. (London, United Kingdom) was used to measure DVS. The following measurement procedure was used to determine the water vapor absorption of a specific compound.
A uniform aqueous solution of a specific, target compound was made at 50% concentration. About 1.2 to 1.6 mg of the prepared aqueous solution was added to DVS instrument at zero tare balance. The temperature was then set at 25° C., and the measurement was performed at various humidity levels. The first measurement was performed at a humidity of 90% to ensure that the sample absorbs the highest level of water in order to minimize the mass transfer barrier during the evaporation process. The typical humidity measurements were then taken at 50%, 40%, 30%, 20%, 10%, and 0% humidity. The dynamics of water absorption was determined by the weight change per minute. If weight change per minute was less than 0.005% of the sample weight, it was deemed that water absorption had reached the equilibrium point. The equilibrium weight at 0% humidity is the sample weight by itself. Thus, the percentage of equilibrium water absorption at various humidity levels was calculated.
Using the above procedure, DVS was used to evaluate water absorption for DGA Acetamide as compared to hydroxyethyl urea and glycerol at different humidity levels.

[2] = test system: skin (inner forearm of each panelist); test: Corneometer measurement of skin moisture after a single application of gel formulation; assay type: in vivo; conditions: 5 wt % gel, average of eight panelists
Protocol: To prepare a gel formulation, deionized water was added to a 4 oz. tall jar that was set up for mixing using an overhead mixer and a jiffy blade. The water was then mixed at a speed that created a good vortex that nearly reached the bottom of the jar (e.g., about 700 rpm). To this, Carbopol® 940 (cross-linked polyacrylate polymer available from Lubrizol, […], Ohio) was slowly added and mixed for at least 15 minutes until homogeneous. Triethanolamine (TEA) was then added and the mixing speed was adjusted overhead to about 200 rpm and continued mixing for about 10 minutes (e.g., product viscosity increased). To this mixture, 5 wt % of the sample compound in its pure form (or hydroxyethyl urea or glycerol control) was added followed by 0.5 wt % GlydantTM PlusTM (a preservative available from Lonza, Basel, Switzerland) and the remaining, balance water. Mixing was continued at 200 rpm for about 15-20 minutes. The mixture was then removed from the mixer and the final pH was measured. […] Moisture levels were measured using a Corneometer® CM 825 (available from CK Industries) prior to and at various time intervals after the sample application at a temperature of 22° C. and relative humidity of 50%, wherein the corneometer values recorded are the difference between the corneometer reading at a given time and the initial corneometer reading at 0 hours, which is set at zero. […]

Row | Percentage of water absorbed based on weight of the tested compound ([1]; 10% rel. humidity) [%] | Percentage of water absorbed based on weight of the tested compound ([1]; 20% rel. humidity) [%] | Percentage of water absorbed based on weight of the tested compound ([1]; 30% rel. humidity) [%] | Percentage of water absorbed based on weight of the tested compound ([1]; 40% rel. humidity) [%] | Percentage of water absorbed based on weight of the tested compound ([1]; 50% rel. humidity) [%] | water absorption capability (comparison in words) ([1]; 50% relative humidity) | water absorption capability (comparison in words) ([1]; relative humidity levels of 10%, 20% 30%, and 40%) | SMILES | humectance performance (corneometer) versus glycerol ([2]; at 24 hours) | corneometer readings versus control (water) formulation ([2]; entire time range tested (24 hours), 22° C., 50% relative humidity)
1 | 4.6 | 8.6 | 15.9 | 23.3 | 27.7 | – | – | OCC(O)CO [Glycerol, glycerol] | – | –
2 | 2.6 | 5.9 | 9.9 | 15.3 | 26.9 | on par with glycerol | on par with that for hydroxyethyl urea | CC(=O)NCCOCCO [DGA acetamide, N-acetyl diglycolamine] | same as glycerol | superior to the control formulation
3 | 2.4 | 5.4 | 9.2 | 14.1 | 19.7 | – | – | NC(=O)NCCO [Hydroxyethyl urea, hydroxyethyl urea] | – | –
